Source: patent US20100055116A1, “Methods and Compositions for Targeting c-Rel” (priority 2006, published 2010)
Peptide text beside a SMILES is read from it. * marks the point of attachment. Cbz = O=C(OCc1ccccc1)*; CH2F = FC*

Experiments:
Pten-mutant B cells = assay: Proliferation and survival assays (CFSE, propidium iodide staining) with anti-IgM; type: cell-based, mouse; details: for division of Pten-mutant cells: 3 days of stimulation with BCR signal, CFSE
Excerpt: Pten(+/−) mice and Pten^flox/+ mice (background strain C57/BL6) were provided by Dr. Pandolfi PP (Di Cristofano et al., 1999 Science 285:2122). To generate B cell-specific Pten-deficient mice, Pten^flox/+ mice were crossed with CD19^cre/+ transgenic mice (purchased from Jackson lab). Offspring carrying CD19^cre/+ and the floxed Pten mutation on both alleles (Pten^flox/flox CD19^Cre/+), and the wild-type Pten gene (Pten^+/+ CD19^Cre/+) were used for analysis as homozygous mutant, wild-type mice, respectively. The mice were maintained under specific pathogen-free conditions in the animal colony of Weill Medical college of Cornell University. Pten^flox/flox CD19^Cre/+ mice were crossed with c-Rel-deficient mice (Tumang et al., 1998 Eur J Immunol 28:4299) to generate the double deficient mice.
For propidium iodide staining assay, B-cells were cultured in 10 μg/ml anti-IgM or 10 μg/ml anti-CD40 or 10 μg/ml LPS. At the indicated time points, cells were collected and stained with a solution containing 50 μg/ml propidium iodide, 20 ng/ml RNase A, 0.1% Triton X-100, and 0.1% sodium citrate. Duplicate samples were then analyzed on a Becton-Dickinson FACS using Cell-Quest software, and the percentage of apoptotic cells (<2N DNA content) or S and G2/M phase cells (>2N DNA content) quantified. For ^3H-thymidine incorporation assays, B-cells were plated at 1×10^5 cells per well in 96-well U-bottomed plates and cultured in complete media containing RPMI 1640, 10% heat inactivated FCS (DeWned; Hyclone, Logan, Utah), 2 mM L-glutamine, 1 mM non-essential amino acids, 100 μg/ml, penicillin/streptomycin, and 5×10^−5 M/L^−1 mercaptoethanol at 37° C. and 5% CO2. Where indicated, cells were stimulated with 10 μg/ml goat anti-mouse IgM F(ab′)2 (anti-IgM, Jackson ImmunoResearch Laboratories), or 10 μg/ml anti-CD40 (mAb 1C 10), or 10 μg/ml LPS. Six hours prior to the indicated time points, cultures were incubated with 0.5 μCi/well thymidine (Amersham), and then harvested onto Whatman Filters to determine proliferative responses by thymidine incorporation. […]

[1] = test system: Pten-mutant and control B cells; assay: Mitochondrial potential by JC-1 staining; type: cell-based, mouse; details: anti-IgM treatment, within 12 hours
Experimental: B cells were cultured to a density of 0.5−1.0×10^6 cells/ml. For each condition, 1 ml of cells was treated with the appropriate agent for the appropriate length of time as shown in FIG. 8C. Mitochondrial potential was assessed by using the fluorescent potentiometric dye JC-1 (5,5′,6,6′,-tetrachloro-1,1′,3,3′-tetraethylbenzimidazolylcarbocyanine iodide, Molecular Probe). JC-1 is a novel cationic carbocyanine dye that accumulates in mitochondria. The dye exists as a monomer at low concentrations and yields green fluorescence, similar to fluorescein. […] These characteristics make JC-1 a sensitive marker for mitochondrial membrane potential. Briefly, 0.3 ml of the cells were mixed with 0.3 ml of staining solution (complete medium containing 0.5 μg/1 ml JC-1). Cells were stained for 30 min in a 37° C. incubator (5% CO2). After staining, cells were collected at room temperature and washed once in 1×PBS. The cell pellet was then resuspended in PBS (pre-warmed to 37° C.), and JC-1 fluorescence was analyzed on a Becton-Dickinson FACS using Cell-Quest software.

immature B cells [2] = assay: Anti-IgM induced apoptosis; type: cell-based, mouse; details: 50 mM inhibitor
Experimental: Mature and immature B cells (>95% B220+) were isolated from untreated mice or sublethally irradiated mice by complement-mediated lysis and Percoll gradient as described previously, and cultured in RPMI 1640 media containing 10% fetal calf serum (FCS) (Cellgro), 1% penicillin, 1% streptomycin (both Life Sciences BRL), and 50 uM b-mercaptoethanol (Sigma). For caspase experiments, 2×10^6/ml B cells were plated per well in 24-well polystyrene flat-bottom plates (Corning) in 1000 ul of total culture volume. […]
The following antibodies were used for FACS analysis: anti-CD24 (HSA), anti-CD21, anti-IgD, anti-IgM, and anti-B220 (RA3-6B2), labeled with R-phycoerythrin (PE), FITC or Allophyocyanin (APC), all purchased from Pharmigen. […] Duplicate samples were then analyzed by FACS (Becton-Dickinson) using CellQuest software, and the percentage of apoptotic cells (<2N DNA content) or S and G2/M phase cells (>2N DNA content) quantified. For PIP3 assays, PIP3 levels were measured using a biotin-labeled antibody against anti-PI-3,4,5-P3 (a gift from Dr. Paul Neilsen, Echelon, Salt Lake City, Utah) and FACS following a published protocol.

immature B cells [3] = assay: BCR-induced mitochondrial depolarization, JC-1 staining; type: cell-based, mouse; details: 50 mM inhibitor, anti-IgM
Experimental: Mature and immature B cells (>95% B220+) were isolated from untreated mice or sublethally irradiated mice by complement-mediated lysis and Percoll gradient as described previously, and cultured in RPMI 1640 media containing 10% fetal calf serum (FCS) (Cellgro), 1% penicillin, 1% streptomycin (both Life Sciences BRL), and 50 uM b-mercaptoethanol (Sigma). For caspase experiments, 2×10^6/ml B cells were plated per well in 24-well polystyrene flat-bottom plates (Corning) in 1000 ul of total culture volume. The following combinations of agents were added for 12 hr or 24 hr at 37° C.: 10 mg/ml of goat anti-mouse IgM F(ab)2 (anti-IgM, Jackson ImmunoResearch Laboratories), 50 mM of z-VAD-fmk, a pan-caspase inhibitor, or 50 mM of z-LEHD-fmk, a specific […], or 50 mM of z-FA-fmk, a cathepsin B inhibitor (Enzyme System Products). For the PI3K assay, 5×10^6 B cells were plated per well in 24-well polystyrene flat-bottom plates (Corning) in 2 ml final culture volume, with 10 mg/ml of goat anti-mouse IgM F(ab′)2 added for the indicated time at 37° C. […]
Cells were cultured at a density of 0.5−1.0×10^6 cells/ml. […] The dye exists as a monomer at low concentrations and yields green fluorescence, similar to fluorescein. […] The cell pellet was then resuspended in PBS, and JC-1 fluorescence analyzed by FACS.

c-Rel (homodimer) [4] = target: T1, c-Rel (homodimer) (Homo sapiens, UniProt Q04864 Q04864:2-619); assay: competition; unlabeled CD28RE returns FP to basal level at 128 nM; details: tags: C-terminal His, E. coli BL-21 Lys (DE3); full-length or subdomain (not specified); chain copies: 2 stated
T1 sequence: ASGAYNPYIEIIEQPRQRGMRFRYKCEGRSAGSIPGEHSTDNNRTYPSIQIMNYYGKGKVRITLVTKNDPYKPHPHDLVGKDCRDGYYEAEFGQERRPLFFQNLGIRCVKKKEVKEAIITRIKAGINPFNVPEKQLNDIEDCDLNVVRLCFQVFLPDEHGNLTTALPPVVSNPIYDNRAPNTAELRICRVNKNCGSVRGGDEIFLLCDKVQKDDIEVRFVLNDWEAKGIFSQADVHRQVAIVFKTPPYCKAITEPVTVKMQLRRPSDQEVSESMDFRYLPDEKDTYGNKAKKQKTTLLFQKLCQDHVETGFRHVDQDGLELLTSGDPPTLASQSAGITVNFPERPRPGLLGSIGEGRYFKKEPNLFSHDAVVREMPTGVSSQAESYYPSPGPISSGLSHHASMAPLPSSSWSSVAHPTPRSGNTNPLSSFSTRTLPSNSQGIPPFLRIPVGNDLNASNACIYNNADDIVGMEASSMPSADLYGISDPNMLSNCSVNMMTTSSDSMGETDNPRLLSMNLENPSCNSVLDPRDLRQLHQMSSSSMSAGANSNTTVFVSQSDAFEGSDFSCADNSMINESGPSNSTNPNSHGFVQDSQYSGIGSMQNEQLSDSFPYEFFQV
Experimental: (§1) According to the EMSA data, the concentrations of FITC-labeled DNA probe and c-Rel protein used in FP screen assay were optimized. Initially, the fluorescently labeled probe was added in different concentrations (5 nM, 10 nM, 100 nM) while c-Rel protein concentration (2000 nM) was constant, and the reactions were incubated for 15-30 minutes at room temperature, and then transferred to the wells of 384-well plate (20 μl/well). The FP values were measured using FUSION Universal Microplate Analyzer (Perkin Elmer, PE). […] In most cases, there is an increase in FP, with FP signals saturated in the presence of 128 nM of c-Rel. The dissociation constant (Kd) calculated using this method is larger than that observed using EMSA.
To exclude the possibility that non-specific interaction of c-Rel protein with DNA molecules contributes to the increase in FP value, a cold competition experiment was performed. […] However, a control DNA molecule, the unlabeled Oct1 (20 mers) in the same conditions as applied to the cold CD28RE probe, had no effect on FP value. Thus, this assay specifically and quantitatively measured interactions in the interface between c-Rel protein and CD28 RE.

c-Rel (homodimer) [5] = target: T1, c-Rel (homodimer); assay: FP; 10 nM probe; FP saturated at 128 nM c-Rel; Kd said to be larger than by EMSA but no number in text; abolished by GST-IkBa; details: tags: C-terminal His, E. coli BL-21 Lys (DE3); full-length or subdomain (not specified); chain copies: 2 stated; label: 5'-FITC
Experimental: as §1
It was next investigated whether this assay could detect a known endogenous inhibitor (IkBα) of c-Rel activity. […] Recombinant GST-IkBα previously generated (final concentration is 150 nM) was added to a binding reaction consisting of 10 nM FITC-CD28RE and 100 nM c-Rel. […] Thus, this assay detected specific inhibitors that function by directly binding c-Rel protein and inducing a conformation change. Moreover, consistent with the scatter data distribution shown in FIG. 3d, z factor, one assay performance indicator, was also evaluated. […]

Cc1ccc(S(=O)(=O)/C=C/C#N)cc1 [Bay 11] was tested, and the “division of Pten-mutant cells” value (Pten-mutant B cells) was “completely blocked”, the cell apoptosis (Pten-mutant B cells; propidium iodine staining) was “significant cell apoptosis” and the mitochondrial depolarization [1] was “mitochondrial depolarization”.

CC(C)C[C@H](NC(=O)[C@H](Cc1ccccc1)NC(=O)c1cnccn1)B(O)O [Velcade] was tested, and the “division of Pten-mutant cells” value (Pten-mutant B cells) was “completely blocked” and the mitochondrial depolarization [1] was “mitochondrial depolarization”.

For CC(NC(=O)[C@H](Cc1ccccc1)NC(=O)OCc1ccccc1)C(=O)CF (stereo partly shown) [z-FA-fink], the anti-IgM induced apoptosis (immature B cells [2]) was “failed to inhibit”.

For COC(=O)CC[C@H](NC(=O)[C@H](CC(C)C)NC(=O)OCc1ccccc1)C(=O)N[C@@H](Cc1cnc[nH]1)C(=O)N[C@@H](CC(=O)OC)C(=O)CF [z-LEHD-fmk] (Cbz-LE(OMe)HD(OMe)-CH2F), the “BCR-induced changes in DY (mitochondrial membrane potential)” value (immature B cells [3]) was “Neither inhibitor reversed”.

COC(=O)C[C@H](NC(=O)[C@H](C)NC(=O)[C@@H](NC(=O)OCc1ccccc1)C(C)C)C(=O)CF [z-VAD-fmk] (Cbz-Val-Ala-Asp(OMe)-CH2F) was tested, and the “BCR-induced changes in DY (mitochondrial membrane potential)” value (immature B cells [3]) was “Neither inhibitor reversed”.

B1: CD28RE EMSA probe/unlabeled competitor (dsDNA)
DNA 1: TCTGGAATTTCTTTAAACCC
DNA 2: GGGTTTAAAGAAATTCCAGA
B1: binds (c-Rel (homodimer) [4]).

B2: CD28RE kB site 20-mer FITC probe (dsDNA)
DNA 1: TCTGGAATTTCTTTAAACCC
DNA 2: GGGTTTAAAGAAATTCCAGA
B2: binds (c-Rel (homodimer) [5]).
